ChEMBL document CHEMBL1137358, “Synthetic inhibitors of cytochrome P-450 2A6: inhibitory activity, difference spectra, mechanism of inhibition, and protein cocrystallization” (J Med Chem, 2006)

Assays:
[1] = test system: CYP2A6 over CYP2D6; assay: Selectivity for CYP2A6 over CYP2D6; details: human
[2] = target: T1, Cytochrome P450 2B6 (Homo sapiens, UniProt P20813); assay: Inhibition of human CYP2B6
T1 sequence (P20813 whole entry): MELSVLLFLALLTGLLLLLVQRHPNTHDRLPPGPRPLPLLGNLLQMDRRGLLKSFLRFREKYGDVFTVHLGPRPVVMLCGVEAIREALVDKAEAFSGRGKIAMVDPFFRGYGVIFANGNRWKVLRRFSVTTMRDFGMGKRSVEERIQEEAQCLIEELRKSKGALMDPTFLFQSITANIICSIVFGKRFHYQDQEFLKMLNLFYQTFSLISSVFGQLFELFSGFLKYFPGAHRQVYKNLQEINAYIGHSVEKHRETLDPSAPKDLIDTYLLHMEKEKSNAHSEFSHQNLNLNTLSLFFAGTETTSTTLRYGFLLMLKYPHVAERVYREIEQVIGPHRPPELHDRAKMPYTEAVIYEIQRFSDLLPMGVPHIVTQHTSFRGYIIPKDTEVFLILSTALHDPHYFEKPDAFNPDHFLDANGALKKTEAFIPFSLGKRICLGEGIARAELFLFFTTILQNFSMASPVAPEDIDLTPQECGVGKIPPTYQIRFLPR

[3] = target: Cytochrome P450 3A4 (Homo sapiens, UniProt P08684); assay: Inhibition of human CYP3A4
[4] = test system: CYP2A6 over CYP3A4; assay: Selectivity for CYP2A6 over CYP3A4; details: human
[5] = test system: CYP2A6 over CYP2C9; assay: Selectivity for CYP2A6 over CYP2C9; details: human
[6] = target: T2, Cytochrome P450 2A6 (Homo sapiens, UniProt P11509); assay: Inhibition of human CYP2A6
T2 sequence (P11509 whole entry): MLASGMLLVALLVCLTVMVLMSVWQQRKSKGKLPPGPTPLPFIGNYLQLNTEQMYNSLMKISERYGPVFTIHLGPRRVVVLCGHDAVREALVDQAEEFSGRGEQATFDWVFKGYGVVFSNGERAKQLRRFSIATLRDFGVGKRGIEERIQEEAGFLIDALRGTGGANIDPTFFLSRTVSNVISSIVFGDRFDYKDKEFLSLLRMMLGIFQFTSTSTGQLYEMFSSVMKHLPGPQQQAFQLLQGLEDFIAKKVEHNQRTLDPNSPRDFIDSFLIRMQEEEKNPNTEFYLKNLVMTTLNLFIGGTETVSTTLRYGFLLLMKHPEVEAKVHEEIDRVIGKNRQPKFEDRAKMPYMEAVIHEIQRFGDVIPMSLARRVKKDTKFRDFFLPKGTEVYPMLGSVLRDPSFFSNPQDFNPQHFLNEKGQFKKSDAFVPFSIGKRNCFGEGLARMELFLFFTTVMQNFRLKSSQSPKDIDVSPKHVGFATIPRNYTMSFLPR

[7] = target: Cytochrome P450 2C19 (Homo sapiens, UniProt P33261); assay: Inhibition of human CYP2C19
[8] = test system: CYP2A6 over CYP2E1; assay: Selectivity for CYP2A6 over CYP2E1; details: human
[9] = target: Cytochrome P450 2D6 (Homo sapiens, UniProt P10635); assay: Inhibition of human CYP2D6
[10] = test system: CYP2A6 over CYP2B6; assay: Selectivity for CYP2A6 over CYP2B6
[11] = (§1) Stability in human liver microsome
[12] = target: Cytochrome P450 2E1 (Homo sapiens, UniProt P05181); assay: Inhibition of human CYP2E1
[13] = test system: CYP2A6 over CYP2C19; assay: Selectivity for CYP2A6 over CYP2C19; details: human
[14] = target: Cytochrome P450 2C9 (Homo sapiens, UniProt P11712); assay: Inhibition of human CYP2C9
[15] = (§2) Stability in mouse liver microsome
[16] = species on record: Mus musculus; assay: as §2; details: microsomes
[17] = test system: Liver microsomes; assay: as §1; details: microsomes
[18] = target: T2, Cytochrome P450 2A6; assay: Displacement of coumarin from CYP2A6 at 100 uM; format: ADME

Chain of Cytochrome P450 2C9 (P11712 whole entry): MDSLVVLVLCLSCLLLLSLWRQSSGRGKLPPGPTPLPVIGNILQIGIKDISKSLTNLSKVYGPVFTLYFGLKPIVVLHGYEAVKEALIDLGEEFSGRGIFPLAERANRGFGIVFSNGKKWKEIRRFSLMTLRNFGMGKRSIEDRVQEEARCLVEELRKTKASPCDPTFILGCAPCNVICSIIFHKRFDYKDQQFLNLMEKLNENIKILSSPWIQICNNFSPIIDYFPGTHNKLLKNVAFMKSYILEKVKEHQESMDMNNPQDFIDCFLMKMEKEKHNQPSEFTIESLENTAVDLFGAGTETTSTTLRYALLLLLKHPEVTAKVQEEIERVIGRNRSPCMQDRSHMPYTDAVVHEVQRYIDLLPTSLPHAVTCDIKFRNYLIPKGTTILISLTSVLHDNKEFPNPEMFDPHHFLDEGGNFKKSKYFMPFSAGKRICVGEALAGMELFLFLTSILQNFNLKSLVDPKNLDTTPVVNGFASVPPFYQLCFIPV
Chain of Cytochrome P450 2E1 (P05181 whole entry): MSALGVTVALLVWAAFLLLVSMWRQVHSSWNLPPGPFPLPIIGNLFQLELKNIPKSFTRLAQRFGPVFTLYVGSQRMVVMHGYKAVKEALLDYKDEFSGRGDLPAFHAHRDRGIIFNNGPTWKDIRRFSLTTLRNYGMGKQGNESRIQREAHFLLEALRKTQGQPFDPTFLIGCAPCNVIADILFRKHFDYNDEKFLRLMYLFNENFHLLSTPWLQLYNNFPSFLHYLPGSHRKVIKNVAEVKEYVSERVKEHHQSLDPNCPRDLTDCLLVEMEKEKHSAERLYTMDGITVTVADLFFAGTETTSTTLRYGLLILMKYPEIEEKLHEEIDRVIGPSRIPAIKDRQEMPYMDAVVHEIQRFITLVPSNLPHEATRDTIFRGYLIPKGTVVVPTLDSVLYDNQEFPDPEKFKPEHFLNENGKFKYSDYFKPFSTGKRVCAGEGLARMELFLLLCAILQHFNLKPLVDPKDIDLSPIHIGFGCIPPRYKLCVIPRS
Chain of Cytochrome P450 2C19 (P33261 whole entry): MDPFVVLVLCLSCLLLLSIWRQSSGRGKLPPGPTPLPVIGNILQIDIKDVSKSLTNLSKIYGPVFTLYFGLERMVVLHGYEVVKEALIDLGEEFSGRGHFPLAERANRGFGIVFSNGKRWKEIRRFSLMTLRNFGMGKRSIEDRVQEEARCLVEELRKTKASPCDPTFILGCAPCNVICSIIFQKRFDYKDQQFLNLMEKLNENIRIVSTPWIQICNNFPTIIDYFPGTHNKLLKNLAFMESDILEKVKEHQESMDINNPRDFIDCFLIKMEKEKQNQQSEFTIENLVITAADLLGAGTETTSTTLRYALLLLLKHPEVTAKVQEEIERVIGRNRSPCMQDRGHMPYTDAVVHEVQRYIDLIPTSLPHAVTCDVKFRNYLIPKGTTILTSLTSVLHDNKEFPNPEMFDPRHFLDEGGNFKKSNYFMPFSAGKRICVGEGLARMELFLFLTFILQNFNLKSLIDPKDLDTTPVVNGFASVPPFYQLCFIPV
Chain of Cytochrome P450 2D6 (P10635 whole entry): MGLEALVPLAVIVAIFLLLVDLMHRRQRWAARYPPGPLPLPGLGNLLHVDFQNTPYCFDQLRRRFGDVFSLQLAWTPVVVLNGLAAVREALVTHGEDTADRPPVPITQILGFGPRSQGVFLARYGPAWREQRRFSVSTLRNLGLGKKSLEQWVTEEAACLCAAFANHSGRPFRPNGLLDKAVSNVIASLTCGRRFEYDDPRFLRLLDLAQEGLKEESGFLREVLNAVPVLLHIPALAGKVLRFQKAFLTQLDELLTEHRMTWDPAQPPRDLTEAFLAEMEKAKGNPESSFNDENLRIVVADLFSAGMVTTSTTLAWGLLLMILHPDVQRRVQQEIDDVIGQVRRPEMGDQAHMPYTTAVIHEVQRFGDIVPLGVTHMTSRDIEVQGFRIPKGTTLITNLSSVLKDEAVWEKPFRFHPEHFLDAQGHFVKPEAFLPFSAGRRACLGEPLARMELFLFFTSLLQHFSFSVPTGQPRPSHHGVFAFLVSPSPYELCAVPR
Chain of Cytochrome P450 3A4 (P08684 whole entry): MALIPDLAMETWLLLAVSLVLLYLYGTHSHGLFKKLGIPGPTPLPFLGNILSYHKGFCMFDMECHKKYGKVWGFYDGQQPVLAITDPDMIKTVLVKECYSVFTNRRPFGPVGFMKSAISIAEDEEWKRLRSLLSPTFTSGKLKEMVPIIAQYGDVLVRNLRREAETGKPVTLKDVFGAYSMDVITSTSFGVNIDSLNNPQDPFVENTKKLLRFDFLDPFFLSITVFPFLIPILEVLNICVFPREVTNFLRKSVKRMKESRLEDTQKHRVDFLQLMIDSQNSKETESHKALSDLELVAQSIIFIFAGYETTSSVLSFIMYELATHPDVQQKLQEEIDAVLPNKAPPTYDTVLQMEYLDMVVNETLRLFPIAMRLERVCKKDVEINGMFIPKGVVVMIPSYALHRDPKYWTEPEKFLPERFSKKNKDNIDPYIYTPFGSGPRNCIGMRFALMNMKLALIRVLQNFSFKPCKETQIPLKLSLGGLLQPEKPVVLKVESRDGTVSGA

Ki [2] [µM] | Ki [3] [µM] | Ki [6] [nM] | Ki [7] [µM] | Ki [9] [µM] | half-life ([11]; liver microsomes) [min] | Ki [12] [µM] | Ki [14] [µM] | half-life ([15]; liver microsomes) [min] | Stability [16] | Structure (SMILES) | selectivity ratio [1] | selectivity ratio [4] | selectivity ratio [5] | selectivity ratio [8] | selectivity ratio [10] | selectivity ratio [13] | further results
179 | > 400 | 800 | 15.3 | 45.3 | 66 | > 400 | 38.1 | – | Stable | CNCc1ccc(-c2cccnc2)o1 | 57 | > 250 | 48 | > 250 | – | 19 | –
5.9 | 19.6 | 600 | 21 | > 400 | 84 | 184 | > 400 | – | Stable | Cc1ccsc1-c1ccc(F)nc1 | > 310 | 5.9 | > 310 | 285 | 9.1 | 32 | –
3.1 | < 25 | 900 | 12.5 | 96.5 | – | 3.1 | 61.5 | 47 | – | Cc1cscc1-c1cccnc1 | – | – | – | – | – | – | T1/2 [17]: 32 min
1.1 | 3.1 | < 800 | 0.2 | 0.7 | – | 0.05 | 0.4 | – | – | SCc1ccc(-c2cccnc2)o1 | < 0.9 | > 4.1 | – | < 0.1 | > 1.5 | < 0.3 | half-life ([11]; microsomes): 119 min; Activity [18]: Active; half-life ([15]; microsomes): 105 min
46.9 | 7.4 | 800 | 7 | 64.5 | – | 0.8 | 14.1 | – | – | CSCc1ccc(-c2cccnc2)o1 | 81 | 9.2 | 18 | 0.9 | 59 | 8.8 | half-life ([11]; microsomes): 59 min; half-life ([15]; microsomes): 38 min
5.3 | 1.1 | 13900 | 0.7 | 38.4 | 92 | 0.6 | 1.3 | 24 | – | c1cncc(-c2ccc(C3SCCS3)o2)c1 | 2.8 | 0.1 | 0.1 | 0.04 | 0.4 | 0.1 | Activity [18]: Active
> 400 | 147 | – | 79 | 127 | – | > 400 | 111 | – | Stable | CN(C)Cc1ccc(-c2cccnc2)o1 | – | – | – | – | – | – | –
30 | 28 | 700 | 55.6 | 124 | 271 | > 400 | 48.2 | – | Stable | c1cncc(-c2ccsc2)c1 | > 286 | 40 | 69 | > 286 | 42 | 81 | –
> 400 | 110 | 66500 | 53 | 14.4 | – | > 400 | 103 | 343 | – | CN(C)Cc1ccc(-c2cccnc2)s1 | 0.2 | 1.6 | 1.5 | > 3 | > 3 | 0.8 | Stability [17]: Stable
– | – | – | – | – | 133 | – | – | – | Stable | Cc1nccn1-c1cccnc1 | – | – | – | – | – | – | –
> 400 | > 400 | 600 | 29.9 | 56.5 | 96 | > 400 | 33.9 | – | Stable | CNCc1ccc(-c2cccnc2)s1 | – | – | – | – | – | – | –
0.9 | 1.5 | 800 | 3.9 | 45.4 | 30 | 0.2 | 2.9 | 18 | – | CC(=O)SCc1ccc(-c2cccnc2)o1 | 53 | 1.7 | 3.4 | 0.3 | 1 | 4.6 | Activity [18]: Not Active

Structure (SMILES) | Ki [2] [µM] | Ki [3] [µM] | Ki [6] [nM] | Ki [7] [µM] | Ki [9] [µM] | half-life ([11]; liver microsomes) [min] | Ki [12] [µM] | Ki [14] [µM] | half-life ([15]; liver microsomes) [min] | Stability [16] | selectivity ratio [1] | selectivity ratio [4] | selectivity ratio [5] | selectivity ratio [8] | selectivity ratio [10] | selectivity ratio [13] | further results
CNCC#Cc1cccnc1 | 60 | 251 | 2700 | 16.4 | > 400 | 136 | 117 | 6.3 | 123 | – | > 74 | 92.8 | 2.3 | 43.1 | 22.2 | 6.1 | –
c1cncc(-c2c[nH]cn2)c1 | 51.5 | 70 | 800 | 26.8 | 100 | 701 | 12.8 | 20.9 | 698 | – | 133 | 93 | 28 | 17 | 69 | 35 | –
CN(C)CC#Cc1cccnc1 | 192 | > 400 | 67500 | > 400 | > 400 | – | > 400 | > 400 | – | Stable | > 3 | > 3 | > 3 | > 3 | 2.8 | > 3 | Stability [17]: Stable
Cn1cnc(-c2cccnc2)c1 | 73 | 131 | 400 | 61 | 102 | – | 2 | 39.7 | 481 | – | – | – | – | 5 | – | – | Stability [17]: Stable
NCCCc1cccnc1 | > 400 | > 400 | 6600 | > 400 | > 400 | – | > 400 | > 400 | – | Stable | > 30 | > 400 | > 30 | > 30 | > 30 | > 30 | Stability [17]: Stable
